US9920061B2, “Imidazo[1,5-A]pyrimidinyl carboxamide compounds and their use in the treatment of medical disorders” (Lysosomal Therapeutics Inc., priority 2016, dated 2018)
Values after ≈ are worked out from the molar mass of the structure shown.

Columns and labels:
[1] = biological target: T1, glucocerebrosidase (Gcase) (Homo sapiens, UniProt P04062); assay: Glucocerebrosidase (Gcase) activation assay, 4-methylumbelliferyl-beta-D-glucopyranoside substrate, with saposin C; format: biochemical; details: for activation at 0.1 µM: 0.1 μM test compound, read-out: Percent Gcase Activation 0.1 μM Test Compound; for activation at 1 µM: 1 μM test compound, read-out: Percent Gcase Activation 1 μM Test Compound
T1 sequence (P04062 40-536): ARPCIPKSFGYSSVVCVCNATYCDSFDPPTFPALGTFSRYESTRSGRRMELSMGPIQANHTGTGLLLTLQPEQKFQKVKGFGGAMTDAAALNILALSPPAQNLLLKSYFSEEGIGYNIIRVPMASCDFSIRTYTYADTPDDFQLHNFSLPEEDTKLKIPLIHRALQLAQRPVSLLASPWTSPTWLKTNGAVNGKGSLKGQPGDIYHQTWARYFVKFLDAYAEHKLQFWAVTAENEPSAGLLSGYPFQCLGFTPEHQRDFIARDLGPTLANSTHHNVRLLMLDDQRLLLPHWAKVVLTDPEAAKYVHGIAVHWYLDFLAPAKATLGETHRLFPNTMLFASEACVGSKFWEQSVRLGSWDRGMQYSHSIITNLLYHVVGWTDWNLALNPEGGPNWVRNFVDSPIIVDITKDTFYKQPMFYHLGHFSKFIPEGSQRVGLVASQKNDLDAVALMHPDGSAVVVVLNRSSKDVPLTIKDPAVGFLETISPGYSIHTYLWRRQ
Outline: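 Micellar buffer (176 mM K2HPO4/50 mM citric acid, pH 4.7; 0.32 mM triton, 0.37 mol % PS) holding 10 nM GCase and 100 nM saposin C, pre-incubated with compound 30 min at room temperature. Substrate final 2 mM before mixing; 15 min reaction, glycine pH 12.5 stop, fluorescence 365/440 nm. Screened at 1.0 and 0.1 μM; 8-point, 3-fold dose response.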

[2] = Compound solubility in water; format: physicochemical

Structure (SMILES)	activation at 0.1 µM [1]	activation at 1 µM [1]	solubility [2]
CCc1cc(N2CCCC(F)(F)C2)nc2c(C(=O)NC(C3CC3)C(F)(F)F)ncn12 (stereo not drawn) [III-137]	10 to 20%	> 60%	12 µg/mL (≈ 27.8 µM)
Cc1cc(N2CCCC(F)(F)C2)nc2c(C(=O)NC(C3CC3)C(F)(F)F)ncn12 (stereo not drawn) [III-138]	> 20%	> 60%	17.2 µg/mL (≈ 41.2 µM)
Cc1cc(N2CCC(F)(F)C2)nc2c(C(=O)NC(C3CC3)C(F)(F)F)ncn12 (stereo not drawn) [III-139]	> 20%	> 60%	1.8 µg/mL (≈ 4.46 µM)
Cc1cc(-c2nc(Cl)cs2)nc2c(C(=O)NC(C)(C)C3CC3)ncn12 [III-140]	< 10%	< 30%	0.8 µg/mL (≈ 2.13 µM)
Cc1cc(-c2ccns2)nc2c(C(=O)NC(C3CC3)C(F)(F)F)ncn12 (stereo not drawn) [III-141]	> 20%	> 60%	18 µg/mL (≈ 47.2 µM)
Cc1cc(-n2ccc(Cl)n2)nc2c(C(=O)NC(C)(C)C3CC3)ncn12 [III-142]	< 10%	< 30%	14.9 µg/mL (≈ 41.5 µM)
Cc1cc(-n2ccc(Cl)n2)nc2c(C(=O)NC(C3CC3)C(F)(F)F)ncn12 (stereo not drawn) [III-143]	10 to 20%	> 60%	4.2 µg/mL (≈ 10.5 µM)
Cc1cc(N2CCC(C)(C)C2=O)nc2c(C(=O)NC(C3CC3)C(F)(F)F)ncn12 (stereo not drawn) [III-144]	< 10%	30 to 60%	20.5 µg/mL (≈ 50.1 µM)
COc1cccc(-c2cc(C)n3cnc(C(=O)NC(C)(C)C4CC4)c3n2)n1 [III-146]	> 20%	> 60%	0.9 µg/mL (≈ 2.46 µM)
C#CC(C)(C)NC(=O)c1ncn2c(C)cc(-c3cccc(OC)n3)nc12 [III-148]	< 10%	30 to 60%	4.9 µg/mL (≈ 14 µM)
CCc1cc(-c2cccc(OC)n2)nc2c(C(=O)NC(C3CC3)C(F)(F)F)ncn12 (stereo not drawn) [III-149]	> 20%	> 60%	0.7 µg/mL (≈ 1.67 µM)
Cc1cc(-c2cccc(C#N)c2)nc2c(C(=O)NC(C)(C)C3CC3)ncn12 [III-151]	> 20%	> 60%	4.3 µg/mL (≈ 12 µM)
Cc1cc(-c2ccccc2C#N)nc2c(C(=O)NC(C3CC3)C(F)(F)F)ncn12 (stereo not drawn) [III-153]	> 20%	> 60%	0.5 µg/mL (≈ 1.25 µM)
Cc1cc(-c2ccccc2C(N)=O)nc2c(C(=O)NC(C3CC3)C(F)(F)F)ncn12 (stereo not drawn) [III-154]	< 10%	< 30%	28.1 µg/mL (≈ 67.3 µM)
CCOc1cccc(-c2cc(C)n3cnc(C(=O)NC(C)(C)C4CC4)c3n2)n1 [III-156]	< 10%	30 to 60%	0.8 µg/mL (≈ 2.11 µM)
C#CC(C)(C)NC(=O)c1ncn2c(C)cc(-c3cccc(OC)c3)nc12 [III-157]	> 20%	> 60%	2.1 µg/mL (≈ 6.03 µM)
Cc1cc(OC2CC(F)(F)C2)nc2c(C(=O)NC(C3CC3)C(F)(F)F)ncn12 (stereo not drawn) [III-158]	< 10%	30 to 60%	21.9 µg/mL (≈ 54.2 µM)
C#CC(C)(C)NC(=O)c1ncn2c(C)cc(-c3cccc(F)c3)nc12 [III-164]	> 20%	> 60%	4.5 µg/mL (≈ 13.4 µM)
CCc1cc(-c2ccns2)nc2c(C(=O)NC(C3CC3)C(F)(F)F)ncn12 (stereo not drawn) [III-165]	> 20%	> 60%	4.7 µg/mL (≈ 11.9 µM)
CCc1cc(Oc2ccc(F)cc2)nc2c(C(=O)N[C@@H](C)C3CC3)ncn12 [III-166]	< 10%	30 to 60%	10.8 µg/mL (≈ 29.3 µM)
CCOc1cccc(-c2cc(C)n3cnc(C(=O)NC(C)C(F)(F)F)c3n2)c1 (stereo not drawn) [III-168]	> 20%	> 60%	1.4 µg/mL (≈ 3.57 µM)
Cc1cc(OC2CCC2)nc2c(C(=O)NC(C3CC3)C(F)(F)F)ncn12 (stereo not drawn) [III-176]	> 20%	> 60%	5.5 µg/mL (≈ 14.9 µM)
Cc1cc(OC(C)C)nc2c(C(=O)NC(C3CC3)C(F)(F)F)ncn12 (stereo not drawn) [III-177]	10 to 20%	30 to 60%	25.4 µg/mL (≈ 71.3 µM)

More lines, now with the values ahead:

activation at 0.1 µM [1]	activation at 1 µM [1]	solubility [2]	Structure (SMILES)
> 20%	> 60%	1.6 µg/mL (≈ 3.85 µM)	Cc1cc(-c2cccc3ocnc23)nc2c(C(=O)NC(C3CC3)C(F)(F)F)ncn12 (stereo not drawn) [III-145]
> 20%	> 60%	0.5 µg/mL (≈ 1.23 µM)	COc1cccc(-c2cc(C)n3cnc(C(=O)NC(C4CC4)C(F)(F)F)c3n2)n1 (stereo not drawn) [III-147]
10 to 20%	> 60%	10.1 µg/mL (≈ 29.2 µM)	Cc1cc(-c2cccc(C#N)c2)nc2c(C(=O)N[C@@H](C)C3CC3)ncn12 [III-150]
> 20%	> 60%	3.8 µg/mL (≈ 9.51 µM)	Cc1cc(-c2cccc(C#N)c2)nc2c(C(=O)NC(C3CC3)C(F)(F)F)ncn12 (stereo not drawn) [III-152]
< 10%	30 to 60%	1.7 µg/mL (≈ 4.65 µM)	CCOc1cccc(-c2cc(C)n3cnc(C(=O)N[C@@H](C)C4CC4)c3n2)n1 [III-155]
> 20%	> 60%	8.9 µg/mL (≈ 21.4 µM)	Cc1cc(-c2cccc3ncoc23)nc2c(C(=O)NC(C3CC3)C(F)(F)F)ncn12 (stereo not drawn) [III-160]
> 20%	> 60%	1.8 µg/mL (≈ 4.94 µM)	CCc1cc(-c2cccc(OC)c2)nc2c(C(=O)N[C@@H](C)C3CC3)ncn12 [III-161]
> 20%	> 60%	0.2 µg/mL (≈ 0.542 µM)	Cc1cc(-c2cccc(Cl)c2)nc2c(C(=O)NC(C)(C)C3CC3)ncn12 [III-162]
> 20%	> 60%	0.4 µg/mL (≈ 1.02 µM)	Cc1cc(-c2cccc(F)c2)nc2c(C(=O)NC(C3CC3)C(F)(F)F)ncn12 (stereo not drawn) [III-163]
> 20%	> 60%	2.9 µg/mL (≈ 7.66 µM)	COc1cccc(-c2cc(C)n3cnc(C(=O)NC(C)C(F)(F)F)c3n2)c1 (stereo not drawn) [III-167]
> 20%	> 60%	0.7 µg/mL (≈ 1.73 µM)	Cc1cc(-c2cccc(OC3CC3)c2)nc2c(C(=O)NC(C)C(F)(F)F)ncn12 (stereo not drawn) [III-169]
> 20%	> 60%	0.1 µg/mL (≈ 0.237 µM)	COc1cc(F)cc(-c2cc(C)n3cnc(C(=O)NC(C4CC4)C(F)(F)F)c3n2)c1 (stereo not drawn) [III-170]
> 20%	> 60%	0.6 µg/mL (≈ 1.42 µM)	COc1cc(-c2cc(C)n3cnc(C(=O)NC(C4CC4)C(F)(F)F)c3n2)ccc1F (stereo not drawn) [III-171]
> 20%	> 60%	4.2 µg/mL (≈ 11.2 µM)	COc1cccc(-c2cc(C)n3cnc(C(=O)NC(C4CC4)C4CC4)c3n2)c1 [III-172]
> 20%	> 60%	1.7 µg/mL (≈ 4.31 µM)	COc1cc(F)cc(-c2cc(C)n3cnc(C(=O)NC(C4CC4)C4CC4)c3n2)c1 [III-173]
> 20%	> 60%	0.3 µg/mL (≈ 0.761 µM)	COc1cc(-c2cc(C)n3cnc(C(=O)NC(C4CC4)C4CC4)c3n2)ccc1F [III-174]
10 to 20%	> 60%	0.2 µg/mL (≈ 0.487 µM)	COc1cc(-c2cc(C)n3cnc(C(=O)NC(C4CC4)C4CC4)c3n2)ccc1Cl [III-175]
10 to 20%	> 60%	17.4 µg/mL (≈ 53 µM)	Cc1cc(OC(C)C)nc2c(C(=O)NC(C3CC3)C3CC3)ncn12 [III-178]
